According to patent publication US20230248717A1, “N-(3-HYDROXYPYRIDINE-2-CARBONYL)GLYCINE-BASED ANTITUMOR DRUG SENSITIZER AND APPLICATION THEREOF” (ZHEJIANG UNIVERSITY, priority 2019, published 2023):
In brackets after ≈: the same amount, converted by molar mass. Like-named read-outs stand apart in the source and are kept apart here.

Key:
[1] = tested on: CT26 mouse colon cancer cells; assay: Cytotoxicity (MTT) in combination with chemotherapeutic drugs; details: for IC50, Compound 7+: CT26 cell line, chemotherapeutic drug in combination with compound 7 (sensitizer 5 μg/mL), 48 h;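 as to all read-outs here: MTT read-out taken as absorbance at 562 nm after a 3 h dye incubation, medium-only wells as blank, values averaged over three independent experiments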
Protocol: (§1) CT26 cells (MC38 cells, 4T1 cells, B16FIO cells, HePa1-6 cells, H22 cells, LLC cells, MB49 cells, P388 cells, C6 cells, BXPC-3 cells, Hela cells, MDA-MB-231 cells, A2780 cells. PC3 cells. HepG2 cells, and HGC-27 cells) were cultured at 5,000 cells/well in a 96-well plate, 100 μL of a medium was added to each well, and the cells were incubated in a 37° C. constant-temperature incubator with 5% CO2 and 95% humidity for 24 h. 100 μL of different concentrations of drugs (DOX: 0.01 μg/mL to 10 μg/mL; PTX: 0.01 μg/mL to 50 μg/mL; Cela: 0.05 μg/mL to 1 μg/mL; sensitizer: 5 μg/mL) were added to each well, while 100 lit of a medium solution was added to the blank group. After culturing for 48 h, centrifugation was conducted at 1,100 rpm for 6 min, the medium in each well was discarded, 100 μL of an 11,11T working solution was added, and the culturing was continued for 3 h. Centrifugation was conducted at 3,300 rpm. for 5 min, the MITT medium in each well was discarded, 100 pt, of the DMSO was added, and the plate was shaken for 5 min to dissolve all crystals in each well. An absorbance of the sample at 562 nm was detected by a microplate reader. Each set of data was an average of three independent experimental results on the same sample.

[2] = tested on: CT26 mouse colon cancer cells;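 also: MTT read-out taken as absorbance at 562 nm after a 3 h dye incubation, medium-only wells as blank, values averaged over three independent experiments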
Protocol: as §1

[3] = tested on: HepG2 human hepatoma cells; assay: Cytotoxicity (MTT) in combination with DOX; format: cell-based; details: 48 h, sensitizer 5 μg/mL in the combination
Protocol: as §1

[4] = tested on: HGC-27 human gastric cancer cells; assay: Cytotoxicity (MTT) in combination with DOX; format: cell-based; details: 48 h, sensitizer 5 μg/mL in the combination
Protocol: as §1

[5] = tested on: HePa1-6 mouse hepatoma cells; assay: Cytotoxicity (MTT) in combination with DOX; format: cell-based; details: 48 h, sensitizer 5 μg/mL in the combination
Protocol: as §1

[6] = tested on: PC3 human prostate cancer cells; assay: Cytotoxicity (MTT) in combination with DOX; format: cell-based; details: 48 h, sensitizer 5 μg/mL in the combination
Protocol: as §1

[7] = tested on: 4T1 mouse breast cancer cells; assay: Cytotoxicity (MTT) in combination with DOX; format: cell-based; details: 48 h, sensitizer 5 μg/mL in the combination
Protocol: as §1

[8] = tested on: P388 mouse lymphoma cells; assay: Cytotoxicity (MTT) in combination with DOX; format: cell-based; details: 48 h, sensitizer 5 μg/mL in the combination
Protocol: as §1

[9] = tested on: A2780 Human ovarian cancer cells; assay: Cytotoxicity (MTT) in combination with DOX; format: cell-based; details: 48 h, sensitizer 5 μg/mL in the combination
Protocol: as §1

[10] = tested on: H22 mouse hepatoma cells; assay: Cytotoxicity (MTT) in combination with DOX; format: cell-based; details: 48 h, sensitizer 5 μg/mL in the combination
Protocol: as §1

[11] = tested on: MB49 mouse bladder cancer cells; assay: Cytotoxicity (MTT) in combination with DOX; format: cell-based; details: 48 h, sensitizer 5 μg/mL in the combination
Protocol: as §1

[12] = tested on: BXPC-3 human pancreatic cancer cells; assay: Cytotoxicity (MTT) in combination with DOX; format: cell-based; details: 48 h, sensitizer 5 μg/mL in the combination
Protocol: as §1

[13] = tested on: B16F10 mouse melanoma cells; assay: Cytotoxicity (MTT) in combination with DOX; format: cell-based; details: B16-F10, 48 h, sensitizer 5 μg/mL in the combination
Protocol: as §1

[14] = tested on: Hela human cervical cancer cells; assay: Cytotoxicity (MTT) in combination with DOX; format: cell-based; details: 48 h, sensitizer 5 μg/mL in the combination
Protocol: as §1

[15] = tested on: MC38 mouse colon cancer cells; assay: Cytotoxicity (MTT) in combination with DOX; format: cell-based; details: MC-38, 48 h, sensitizer 5 μg/mL in the combination
Protocol: as §1

[16] = tested on: C6 rat glioma cells; assay: Cytotoxicity (MTT) in combination with DOX; format: cell-based; details: Glioma cell, 48 h, sensitizer 5 μg/mL in the combination
Protocol: as §1

[17] = tested on: MDA-MB-231 human breast cancer cells; assay: Cytotoxicity (MTT) in combination with DOX; format: cell-based; details: 48 h, sensitizer 5 μg/mL in the combination
Protocol: as §1

[18] = tested on: LLC mouse lung cancer cells; assay: Cytotoxicity (MTT) in combination with DOX; format: cell-based; details: 48 h, sensitizer 5 μg/mL in the combination
Protocol: as §1

CCc1c2c(nc3ccc(O)cc13)-c1cc3c(c(=O)n1C2)COC(=O)[C@]3(O)CC [7-ethyl-10-hydroxycamptothecine]
IC50, Compound 7+ [1]: 0.025 ± 0.001 µg/mL | IC50 [2]: 0.066 ± 0.006 µg/mL (≈ 0.168 µM)

N.N.O=C([O-])C1(C(=O)[O-])CCC1.[Pt+2] [Carboplatin]
IC50, Compound 7+ [1]: 0.192 ± 0.052 µg/mL | IC50 [2]: 0.761 ± 0.044 µg/mL

N.N.[Cl][Pt][Cl] [Cis-platinum]
IC50, Compound 7+ [1]: 0.571 ± 0.068 µg/mL | IC50 [2]: 1.28 ± 0.146 µg/mL

COc1cccc2c1C(=O)c1c(O)c3c(c(O)c1C2=O)C[C@@](O)(C(=O)CO)C[C@@H]3O[C@H]1C[C@H](N)[C@H](O)[C@H](C)O1 [DOX, doxorubicin]
IC50 [3]: 3.45 ± 0.778 µg/mL | IC50 [4]: 1.82 ± 0.227 µg/mL | IC50 [5]: 1.35 ± 0.331 µg/mL | IC50 [6]: 2.32 ± 0.195 µg/mL | IC50 [7]: 1.76 ± 0.221 µg/mL | IC50 [8]: 0.197 ± 0.029 µg/mL | IC50 [9]: 10.1 ± 1.24 µg/mL | IC50 [10]: 5.13 ± 0.119 µg/mL | IC50 [11]: 0.447 ± 0.022 µg/mL | IC50 ([1]; Mus musculus, CT26, 48 h): 0.256 ± 0.017 µg/mL | IC50 [12]: 14.2 ± 1.68 µg/mL | IC50 [13]: 0.214 ± 0.011 µg/mL | IC50 [14]: 2.77 ± 0.492 µg/mL | IC50 [15]: 0.411 ± 0.017 µg/mL | IC50 [16]: 0.119 ± 0.026 µg/mL | IC50 [17]: 3.57 ± 0.153 µg/mL | IC50 [18]: 0.088 ± 0.007 µg/mL

CC(=O)O[C@@]12CO[C@@H]1C[C@H](O)[C@@]1(C)C(=O)[C@H](O)C3=C(C)[C@@H](OC(=O)[C@H](O)[C@@H](NC(=O)OC(C)(C)C)c4ccccc4)C[C@@](O)([C@@H](OC(=O)c4ccccc4)[C@H]21)C3(C)C [Docetaxel]
IC50, Compound 7+ [1]: 0.029 ± 0.005 µg/mL

O=C1[O][Pt]2([NH][C@@H]3CCCC[C@H]3[NH]2)[O]C1=O [Eloxatin]
IC50, Compound 7+ [1]: 2.497 ± 0.185 µg/mL

COc1cccc2c1C(=O)c1c(O)c3c(c(O)c1C2=O)C[C@@](O)(C(=O)CO)C[C@@H]3O[C@H]1C[C@H](N)[C@@H](O)[C@H](C)O1 [Epirubicin]
IC50, Compound 7+ [1]: 17.125 ± 1.338 µg/mL | IC50 [2]: 97.4 ± 3.33 µg/mL (≈ 179 µM)
